Laboratory results as given in paper PMC12137981 (Acta Pharmaceutica Sinica. B, 2025).

Target: SUMOylation activating enzyme subunit 1 (SAE1) (Homo sapiens, UniProt Q9UBE0)
Experiment: MST with RED-NHS-labeled purified SAE1
Type: binding

SUMOylation activating enzyme subunit 1 (SAE1), sequence (Q9UBE0 whole entry): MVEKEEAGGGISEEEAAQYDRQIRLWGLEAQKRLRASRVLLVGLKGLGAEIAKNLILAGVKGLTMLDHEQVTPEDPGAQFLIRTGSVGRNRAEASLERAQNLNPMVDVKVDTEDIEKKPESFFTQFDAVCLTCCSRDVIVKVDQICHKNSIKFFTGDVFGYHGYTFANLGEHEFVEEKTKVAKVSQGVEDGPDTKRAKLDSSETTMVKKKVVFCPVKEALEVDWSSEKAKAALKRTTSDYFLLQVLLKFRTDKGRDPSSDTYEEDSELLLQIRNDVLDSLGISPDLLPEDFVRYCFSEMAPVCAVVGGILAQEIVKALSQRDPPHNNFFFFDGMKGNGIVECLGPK

Compound: COc1cc2c(c(OC)c1OC)-c1ccc(OC)c(=O)cc1[C@@H](NC(C)=O)CC2 [COL, colchicine]
- Kd: 2560 nM
